Entries after “also recorded” stand apart in the source; their conditions may differ.
Experiments:
[1] = test system: oligodendrocytes and neurons; test: MTS metabolic activity assay (CellTiter 96 AQueous One) of demyelinated cell cultures
Method: Metabolic activity of cells was then measured by an MTS assay as described in the text.
Monitoring of metabolic activity (CellTiter 96® AQueous One; Promega) is used to identify concentrations that caused a minimum amount of damage to the oligodendrocytes and neurons. In this assay a tetrazolium compound (MTS) and an electron coupling reagent (phenazine ethosulfate) are used for calorimetric detection of metabolic activity. MTS is bioreduced, presumably by NADPH or NADH, into a colored formazan product that is soluble in tissue culture medium and can be detected spectrophotometrically. Absorbance at about […] is proportional to metabolic activity and is commonly used to monitor the number of living cells in culture.

Xenopus tadpoles = details: 0.1 to 0.2 μg/ml in tadpole bins; cited from earlier work
animals = details: injection of 2 μl of a 1% solution; cited from earlier work

Molecule | effect on cellular metabolism / damage to neural or glial cell bodies (metabolic assay) ([1]; 10 μg/ml, 10 minute exposure) | demyelination in Xenopus tadpoles (Xenopus tadpoles) | cellular damage (metabolic assay) ([1]; relatively low concentrations (0.1%), 10 minutes) | local demyelination in animals (animals)
Oc1c(Cl)cc(Cl)c(Cl)c1Cc1c(O)c(Cl)cc(Cl)c1Cl [hexachlorophene] | without an observable effect on cellular metabolism; also recorded: mild enough to prevent significant damage to the neural or glial cell bodies | cause demyelination |  | 
lysophosphatidylcholine |  |  | significant cellular damage | cause local demyelination

From US20100069254A1, “Cell Culture Model for Demyelination/Remyelination” (priority 2008, published 2010)
